For assay [1], the target named is T1, human GST-π GSTP1a-1a, recombinant, encoded by hGSTP1*A (Ile104, Ala113; SEQ ID NO:3 and SEQ ID NO:4) (Homo sapiens, UniProt P09211).
T1 construct: made in house; host or cells: E. coli (XL1 Blue, pBK-CMV vector)
Description: Enzyme kinetics: catalysis of the conjugation of GSH with CDNB by purified recombinant GST-π protein. To be noted: 25° C., 0.1M K-phosphate buffer pH 8.3, 2.5 mM GSH. Format: biochemical. Here is the method:
(§1) FIGS. 8A-C. Lineweaver-Burke plots for the catalysis of the conjugation of GSH with CDNB by GSH-affinity chromatography purified recombinant GSTP1a-1a (FIG. 8A), GSTP1b-1b (FIG. 8B) and GSTP1c-1c (FIG. 8C). Reaction rates were determined with 2.5 mM GSH and 0.015 unit of each enzyme.
(§2) Purification and enzyme kinetic analysis of variant GST-π proteins. Functional consequences of the structural differences in the GST-π variant proteins was determined by the differential ability of the recombinant GST-π proteins to catalyze the conjugation of GSH with 1-chloro-2,4-dinitrobenzene (CDNB), a universal GST substrate. After expression in E. coli, the three GST-π proteins were purified by GSH-affinity chromatography on S-hexyl glutathione linked to epoxy-activated sepharose 6B, as previously described (Simons and Van der Jagt, 1981) and then used for enzyme kinetic analysis. Reaction mixtures (25° C.) in 100 mM potassium phosphate buffer, pH 8.3 contained 0.5-2.5 mM CDNB, 2.5 mM GSH and 0.015 unit of purified GST-π protein. The change in absorbance was monitored at 340 nm over two minutes and used to compute reaction rates. The rates of the spontaneous reactions of GSH with CDNB, determined with reaction mixtures in which the GST-π enzyme was replaced with buffer, were subtracted from the rates of the enzyme catalyzed reactions. The resulting reaction rates were used to generate double reciprocal plots from which Vmax and Km values were determined, using standard methodology (Segel, 1976).

For assay [2], the target named is T2, human GST-π variant GSTP1c-1c, recombinant, encoded by hGSTP1*C (Ile104→Val104, Ala113→Val113; SEQ ID NO:7 and SEQ ID NO:8) (Homo sapiens, UniProt P09211, A114V/I105V).
T2 construct: made in house; host or cells: E. coli (XL1 Blue, pBK-CMV vector)
Described as above. It counts as biochemical. To be noted: 25° C., 0.1M K-phosphate buffer pH 8.3, 2.5 mM GSH. Here is the method: as §1, §2

The target in assay [3] is T3, human GST-π variant GSTP1b-1b, recombinant, encoded by hGSTP1*B (Ile104→Val104; SEQ ID NO:5 and SEQ ID NO:6) (Homo sapiens, UniProt P09211, I105V).
T3 construct: made in house; host or cells: E. coli (XL1 Blue, pBK-CMV vector)
Described as above. Format: biochemical. To be noted: 25° C., 0.1M K-phosphate buffer pH 8.3, 2.5 mM GSH. As to the method: as §1, §2

Assay [4] relates to GST-π gene expression in MGR-3 cells. Kind of assay: Retinoic acid effect on GST-π gene expression in tumor cells (Northern and Western blotting). To be noted: Homo sapiens. It counts as cell-based. As to the method: Retinoic acid effect on GST-π gene expression in tumor cells. To further determine the functionality of the RAREs in GST-π gene of MGR-3 cell line, we examined changes in GST-π gene transcripts in MGR-3 cells after exposure to RA. For this study, MGR-3 cells in exponential growth were treated with 1 μM all-trans RA. Another set cultures without RA treatment served as controls. After 24 and 48 hrs incubation at 37° C., total RNA was extracted and GST-π gene transcript levels were determined by Northern blotting, as described earlier. Alterations in GST-π protein content was determined in cells similarly treated with 1 μM all-trans RA. Cultures were harvested after 0, 12, 24 and 48 hrs post-RA exposure, cell extracts prepared from them, as previously described, and subjected to Western blotting with anti-GST-π antibodies.

The subject of assay [5] is RAR-β levels in MGR-3 cells. Description: Induction of RAR-β in nuclear extracts of RA-treated MGR-3 cells (immunoprecipitation). Format: cell-based. To be noted: Homo sapiens, 48-hr exposure, read-out: increase in RAR-β levels compared to untreated controls.
The mark [6] stands for this setting: listed as 1-Chloro-2,4-dinitrobenzene.

We go through two molecules from US5968737A, “Method of identifying inhibitors of glutathione S-transferase (GST) gene expression” (The University of Mississippi, priority 1996, dated 1999).

By Km is commonly meant the substrate concentration at which the rate is half of its maximum.

Read-outs that look alike come from different tables or passages of the source.

T2 sequence (P09211 2-210 I105V/A114V): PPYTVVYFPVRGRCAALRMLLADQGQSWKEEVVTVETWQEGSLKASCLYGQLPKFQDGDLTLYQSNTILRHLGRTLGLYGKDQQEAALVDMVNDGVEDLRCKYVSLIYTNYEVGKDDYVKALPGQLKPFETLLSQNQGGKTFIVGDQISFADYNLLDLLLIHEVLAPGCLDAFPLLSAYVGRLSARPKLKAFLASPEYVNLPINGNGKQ
T1 sequence (P09211 2-210 limits assumed): as the sequence (P09211 2-210 I105V/A114V) above, with V104I, V113A counted along it
T3 sequence (P09211 2-210 I105V): as the sequence (P09211 2-210 I105V/A114V) above, with V113A counted along it

For the molecule `O=[N+]([O-])c1ccc(Cl)c([N+](=O)[O-])c1` [CDNB, 1-chloro-2,4-dinitrobenzene], the “Vmax (CDNB)” value in assay [1] came out at 4.7 ± 0.03 µmol/min/mg; in assay [1] (setting [6]) it was 4.7 ± 0.03 µmol/min/mg; in assay [2], 1.4 ± 0.23 µmol/min/mg; in assay [2] (setting [6]) it was 1.4 ± 0.23 µmol/min/mg; in assay [3], 1.7 ± 0.087 µmol/min/mg; in assay [3] (setting [6]), 1.6 ± 0.087 µmol/min/mg. Further, the Km in assay [1] (0.5-2.5 mM CDNB) is 980 µM; in assay [2] (0.5-2.5 mM CDNB), 3100 ± 170 µM; in assay [3] (0.5-2.5 mM CDNB), 2700 ± 23 µM.
Consider `CC1=C(/C=C/C(C)=C/C=C/C(C)=C/C(=O)O)C(C)(C)CCC1` [all-trans retinoic acid], for which the fold induction at 1 µM in assay [4] (1.0 μM, 48 hr, Northern analysis, read-out: increase in the level of GST-π gene transcripts relative to control levels (maximum)) was 3.4; in assay [4] (1 μM, 48 hrs, Western blot, read-out: increase in GST-π protein content relative to untreated controls), 2.8; in assay [5], more than 3.
